Reference: US6881741B2 (ViroChem Pharma Inc., priority 2001, dated 2005)
pIC50: −log10 of the molar value. Counter-ions that a name gives are not always drawn.

molecular target: recombinant HCV NS5B (HCV RNA-dependent RNA polymerase) (Hepatitis C virus genotype 1b, UniProt P26663); assay: biochemical; conditions: HCV polymerase activity, list of compounds of Example 27; read-out: IC50 (polymerase activity)
Sequence (P26663 2420-3010 limits assumed): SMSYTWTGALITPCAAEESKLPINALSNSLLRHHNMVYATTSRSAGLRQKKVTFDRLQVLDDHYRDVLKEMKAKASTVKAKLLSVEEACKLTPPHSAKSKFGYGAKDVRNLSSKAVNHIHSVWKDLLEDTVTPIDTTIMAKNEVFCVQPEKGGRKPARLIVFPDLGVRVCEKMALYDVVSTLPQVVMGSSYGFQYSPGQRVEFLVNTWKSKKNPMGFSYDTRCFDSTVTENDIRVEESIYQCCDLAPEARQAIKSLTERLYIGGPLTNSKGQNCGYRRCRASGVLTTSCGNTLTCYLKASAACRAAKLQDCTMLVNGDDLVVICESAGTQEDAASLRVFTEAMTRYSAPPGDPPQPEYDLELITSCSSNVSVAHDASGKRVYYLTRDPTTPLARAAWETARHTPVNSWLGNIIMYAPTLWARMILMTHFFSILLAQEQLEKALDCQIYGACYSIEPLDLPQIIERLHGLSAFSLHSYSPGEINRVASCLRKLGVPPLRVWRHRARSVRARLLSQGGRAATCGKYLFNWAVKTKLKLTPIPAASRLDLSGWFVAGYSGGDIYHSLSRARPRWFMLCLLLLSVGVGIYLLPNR

Row | Structure (SMILES) | pIC50
1 | CC(C)N(C(=O)c1cc2c(Cl)cc(Cl)cc2[nH]1)c1cc(-c2ccccc2)sc1C(=O)O [Compound 521, 3-[(4,6-DICHLORO-1#H!-INDOLE-2- CARBONYL)-ISOPROPYL-AMINO]-5- PHENYL-THIOPHENE-2-CARBOXYLIC ACID] | > 5.30
2 | CC(C1CCN(C(=O)OCc2ccccc2)CC1)N(C(=O)c1ccc(Cl)cc1Cl)c1cc(-c2ccccc2)sc1C(=O)O (centres unmarked) [Compound 523, 4-{1-[(2-CARBOXY-5-PHENYL-THIOPHEN- 3-YL)-(2,4-DICHLORO-BENZOYL)-AMINO]- ETHYL}-PIPERIDINE-1-CARBOXYLIC ACID BENZYL ESTER] | 4.70 to 5.30
3 | CC1CCC(C(=O)N(c2cc(C3=CCN(C(=O)OCc4ccccc4)CC3)sc2C(=O)O)C(C)C)CC1 (centres unmarked) [Compound 524, 4-{5-CARBOXY-4-[ISOPROPYL-(4- METHYL-CYCLOHEXANECARBONYL)- AMINO]-THIOPHEN-2-YL}-3,6-DIHYDRO- 2#H!-PYRIDINE-1-CARBOXYLIC ACID BENZYL ESTER] | > 5.30
4 | CC1CCC(C(=O)N(c2ccncc2)c2cc(-c3ccccc3)sc2C(=O)O)CC1 (centres unmarked) [Compound 525, 3-[(4-METHYL- CYCLOHEXANECARBONYL)-PYRIDIN-4- YL-AMINO]-5-PHENYL-THIOPHENE-2- CARBOXYLIC ACID] | > 5.30
5 | CC(C)N(C(=O)c1ccc(Cl)cc1Cl)c1cc(C2CCNCC2)sc1C(=O)O [Compound 526, 3-[(2,4-DICHLORO-BENZOYL)- ISOPROPYL-AMINO]-5-PIPERIDIN-4-YL- THIOPHENE-2-CARBOXYLIC ACID; COMPOUND WITH TRIFLUORO-ACETIC ACID] | < 4.70
6 | CCCC1CCC(C(=O)N(c2cc(-c3ccccc3)sc2C(=O)O)C(C)C)CC1 (centres unmarked) [Compound 527, 3-[ISOPROPYL-(4-PROPYL- CYCLOHEXANECARBONYL)-AMINO]-5- PHENYL-THIOPHENE-2-CARBOXYLIC ACID] | > 5.30
7 | NC1CCC(N(C(=O)c2ccc(Cl)cc2Cl)c2cc(-c3ccccc3)sc2C(=O)O)CC1 (centres unmarked) [Compound 528, 4-[(2-CARBOXY-5-PHENYL-THIOPHEN-3- YL(-(2,4-DICHLORO-BENZOYL)-AMINO]- CYCLOHEXYL-AMMONIUM; TRIFLUORO- ACETATE] | > 5.30
8 | CC(C1CCNCC1)N(C(=O)c1ccc(Cl)cc1Cl)c1cc(-c2ccccc2)sc1C(=O)O (centres unmarked) [Compound 529, 3-[(2,4-DICHLORO-BENZOYL)-(1- PIPERIDIN-4-YL-ETHYL)-AMINO]-5- PHENYL-THIOPHENE-2- CARBOXYLIC ACID; COMPOUND WITH TRIFLUORO-ACETIC ACID] | > 5.30
9 | CC(C)N(C(=O)C1CC=CCC1)c1cc(-c2ccccc2)sc1C(=O)O (centres unmarked) [Compound 530, 3-[(CYCLOHEX-3-ENECARBONYL)- ISOPROPYL-AMINO]-5-PHENYL- THIOPHENE-2-CARBOXYLIC ACID] | 4.70 to 5.30
10 | CCC1CCC(C(=O)N(c2cc(-c3ccccc3)sc2C(=O)O)C(C)C)CC1 (centres unmarked) [Compound 531, 3-[(4-ETHYL-CYCLOHEXANECARBONYL)- ISOPROPYL-AMINO]-5-PHENYL- THIOPHENE-2-CARBOXYLIC ACID] | > 5.30
11 | CC(C)N(C(=O)C1CCC(Cl)CC1)c1cc(-c2ccccc2)sc1C(=O)O (centres unmarked) [Compound 532, 3-[(4-CHLORO- CYCLOHEXANECARBONYL)-ISOPROPYL- AMINO]-5-PHENYL-THIOPHENE-2- CARBOXYLIC ACID] | > 5.30
12 | CC1CN(C(=O)OCc2ccccc2)CCC1N(C(=O)c1ccc(Cl)cc1Cl)c1cc(-c2ccccc2)sc1C(=O)O (centres unmarked) [Compound 533, 4-[(2-CARBOXY-5-PHENYL-THIOPHEN-3- YL)-(2,4-DICHLORO-BENZOYL)-AMINO]-3- METHYL- PIPERIDINE-1-CARBOXYLIC ACID BENZYL ESTER] | > 5.30
13 | CO[C@H]1CCCCC1N(C(=O)c1ccc(Cl)cc1Cl)c1cc(-c2ccccc2)sc1C(=O)O (some centres unmarked) [Compound 534, 3-[(2-DICHLORO-BENZOYL)-(2- METHOXY-CYCLOHEXYL)-AMINO]-5- PHENYL-THIOPHENE-2- CARBOXYLIC ACID] | > 5.30
14 | CC1(C)OCC(N(C(=O)c2ccc(Cl)cc2Cl)c2cc(-c3ccccc3)sc2C(=O)O)CO1 [Compound 535, 3-[(2,4-DICHLORO-BENZOYL)-(2,2- DIMETHYL-[1,3]DIOXAN-5-YL)-AMINO]-5- PHENYL-THIOPHENE-2-CARBOXYLIC ACID] | > 5.30
15 | CC1CCC(C(=O)N(c2cc(C3CCN(C)CC3)sc2C(=O)O)C(C)C)CC1 (centres unmarked) [Compound 536, 3-[ISOPROPYL-(4-METHYL- CYCLOHEXANECARBONYL)-AMINO]-5-(1- METHYL-PIPERIDIN-4-YL)-THIOPHENE-2- CARBOXYLIC ACID] | > 5.30
16 | CC(C)N(C(=O)[C@@H]1CC[C@@H](C)C[C@@H]1O)c1cc(-c2ccccc2)sc1C(=O)O [Compound 540, 3-[((1R,2S,4R)-2-HYDROXY-4-METHYL- CYCLOHEXANECARBONYL)-ISOPROPYL- AMINO]-5-PHENYL-THIOPHENE-2- CARBOXYLIC ACID] | > 5.30
17 | COc1cc(C)c(S(=O)(=O)N2CC(C)=CCC2C(=O)N(c2cc(-c3ccccc3)sc2C(=O)O)C(C)C)c(C)c1C (centres unmarked) [Compound 541, 3-(ISOPROPYL-[1-(4-METHOXY-2,3,6- TRIMETHYL-BENZENESULFONYL)-5- METHYL-1,2,3,6-TETRAHYDRO- PYRIDINE-2-CARBONYL]-AMINO)-5- PHENYL-THIOPHENE-2-CARBOXYLIC ACID] | 4.70 to 5.30
18 | CC(C)N(C(=O)c1ccc(Cl)cc1Cl)c1c(C(=O)O)sc(-c2ccccc2)c1F [Compound 542, 3-[(2,4-DICHLORO-BENZOYL)- ISOPROPYL-AMINO]-4-FLUORO-5- PHENYL-THIOPHENE-2-CARBOXYLIC ACID] | 4.70 to 5.30

Row | Structure (SMILES) | pIC50
19 | CC1CCC(C(=O)N(CC2CCNCC2)c2cc(-c3ccccc3)sc2C(=O)O)CC1 (centres unmarked) [Compound 544, 4-([(2-CARBOXY-5-PHENYL-THIOPHEN-3- YL)-(4-METHYL- CYCLOHEXANECARBONYL)-AMINO]- METHYL)-PIPERIDINIUM; TRIFLUORO- ACETATE] | > 5.30
20 | CC(CNC(=O)OC(C)(C)C)N(C(=O)c1ccc(Cl)cc1Cl)c1cc(-c2ccccc2)sc1C(=O)O (centres unmarked) [Compound 545, 3-[(2-TERT-BUTOXYCARBONYLAMINO-1- METHYL-ETHYL)-(2,4-DICHLORO- BENZOYL)-AMINO]-5-PHENYL- THIOPHENE-2-CARBOXYLIC ACID] | > 5.30
21 | CC(C[NH3+])N(C(=O)c1ccc(Cl)cc1Cl)c1cc(-c2ccccc2)sc1C(=O)O (centres unmarked) [Compound 546, 2-[(2-CARBOXY-5-PHENYL-THIOPHEN-3- YL)-(2,4-DICHLORO-BENZOYL)-AMINO]- PROPYL-AMINE TRIFLUOROACETIC ACID SALT] | > 5.30
22 | O=C(O)c1sc(-c2ccccc2)cc1N(C(=O)c1ccc(Cl)cc1Cl)C1CCC(C(=O)O)C1 (centres unmarked) [Compound 548, 3-[(3-CARBOXY-CYCLOPENTYL)-(2,4- DICHLORO-BENZOYL)-AMINO]-5- PHENYL-THIOPHENE-2-CARBOXYLIC ACID] | > 5.30
23 | NC1CCCCC1N(C(=O)c1ccc(Cl)cc1Cl)c1cc(-c2ccccc2)sc1C(=O)O (centres unmarked) [Compound 549, 2-[(2-CARBOXY-5-PHENYL-THIOPHEN-3-YL)- (2,4-DICHLORO-BENZOYL)-AMINO]- CYCLOHEXYL-AMMONIUM; CHLORIDE] | > 5.30
24 | Cc1ccc(S(=O)(=O)Nc2cc(-c3ccccc3)sc2C(=O)NCC(=O)O)cc1 [Compound 551, {[5-PHENYL-3-(TOLUENE-4- SULFONYLAMINO)-THIOPHENE-2- CARBONYL]-AMINO}-ACETIC ACID] | 4.70 to 5.30
25 | Cc1ccccc1S(=O)(=O)Nc1cc(Br)sc1C(=O)O [Compound 552, 5-BROMO-3-(TOLUENE-2- SULFONYLAMINO)-THIOPHENE-2- CARBOXYLIC ACID] | 4.70 to 5.30
26 | O=C(O)c1sc(-c2ccccc2)cc1N(C(=O)c1ccc(Cl)cc1Cl)C1CCCCC1 [Compound 553, 3-[CYCLOHEXYL-(2,4-DICHLORO- BENZOYL)-AMINO]-5-PHENYL- THIOPHENE-2-CARBOXYLIC ACID] | > 5.30
27 | CC1CCC(C(=O)N(c2cc(-c3ccccc3)sc2C(=O)O)C2COCOC2)CC1 (centres unmarked) [Compound 554, 3-[[1,3]DIOXAN-5-YL-(4-METHYL- CYCLOHEXANECARBONYL)-AMINO]-5- PHENYL-THIOPHENE-2-CARBOXYLIC ACID] | > 5.30
28 | CCN(CC)c1ncc(CN(C(=O)c2ccc(Cl)cc2Cl)c2cc(-c3ccccc3)sc2C(=O)O)s1 [Compound 557, 3-[(2,4-DICHLORO-BENZOYL)-(2- DIETHYLAMINO-THIAZOL-5-YLMETHYL)- AMINO]-5-PHENYL-THIOPHENE-2- CARBOXYLIC ACID] | > 5.30
29 | CC[NH+](CC)c1ncc(CN(C(=O)c2ccc(Cl)cc2Cl)c2cc(-c3ccccc3)sc2C(=O)O)s1 [Compound 558, (5-{[[2-CARBOXY-5-PHENYL-THIOPHEN-3- YL)-(2,4-DICHLORO-BENZOYL)-AMINO]- METHYL}-THIAZOL-2-YL)-DIETHYL- AMMONIUM; CHLORIDE] | > 5.30
30 | CC1CCC(C(=O)N(c2cc(-c3ccc(F)cc3)sc2C(=O)O)C(C)C)CC1 (centres unmarked) [Compound 559, 5-(4-FLUORO-PHENYL)-3-[ISOPROPYL-(4- METHYL-CYCLOHEXANECARBONYL)- AMINO]-THIOPHENE-2-CARBOXYLIC ACID] | > 5.30
31 | CC(C)N(C(=O)[C@H]1CC[C@H](C)C[C@H]1O)c1cc(-c2ccc(F)cc2)sc1C(=O)O [Compound 560] | > 5.30
32 | COCC(C)N(C(=O)c1ccc(Cl)cc1Cl)c1cc(-c2ccccc2)sc1C(=O)O (centres unmarked) [Compound 561, 3-[(2,4-DICHLORO-BENZOYL)-(2- METHOXY-1-METHYL-ETHYL)-AMINO]-5- PHENYL-THIOPHENE-2-CARBOXYLIC ACID] | > 5.30
33 | CC(C)N(C(=O)C1=CC[C@@H](C)CC1)c1cc(-c2ccccc2)sc1C(=O)O [Compound 562, 3-[(4S)-ISOPROPYL-(4-METHYL- CYCLOHEX-1-ENECARBONYL)-AMINO]-5- PHENYL-THIOPHENE-2-CARBOXYLIC ACID] | > 5.30
34 | Cc1ccc(S(=O)(=O)Nc2cc(-c3ccc(Cl)cc3)sc2C(N)=O)cc1 [Compound 563, 5-(4-CHLORO-PHENYL)-3-(TOLUENE-4- SULFONYLAMINO)-THIOPHENE-2- CARBOXYLIC ACID AMIDE] | 4.70 to 5.30
35 | Cc1ccc(S(=O)(=O)Nc2cc(-c3ccc(F)cc3)sc2C(N)=O)cc1 [Compound 564, 5-(4-FLUORO-PHENYL)-3-(TOLUENE-4- SULFONYLAMINO)-THIOPHENE-2- CARBOXYLIC ACID AMIDE] | 4.70 to 5.30
